Experimental data published in patent publication US20020137929A1, “1 - (3-heterocyclylphenyl) isothiourea, -isourea, -guanidine and -amidine herbicidal agents” (Intellectual Property Department, BASF Aktiengesellschaft, priority 1998, published 2002).

Assays:
AMBEL (Ragweed, Common) [1] = test: Postemergence herbicidal evaluation; assay type: in vivo, Ambrosia artemisifolia; conditions: postemergence
In short: (§1)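 Scores (0–9) reflect plant stand, vigor, malformation, size, chlorosis and general appearance relative to control, read 4 to 5 weeks after treatment and averaged where tests were repeated. Application: about 0.0156–0.500 kg/ha sprayed at 40 psi onto two-week seedlings.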

[2] = test system: IPOHE (Morningglory, Ivyleaf); test: Postemergence herbicidal evaluation; assay type: in vivo, Ipomoea hederacea; conditions: postemergence
In short: as §1

[3] = test system: GLXMAW (Soybean, Williams); test: Postemergence herbicidal evaluation; assay type: in vivo, Glycine max, (L.) Merr. cv Williams; conditions: postemergence
In short: as §1

ZEAMX (Corn, Field) = test: Postemergence herbicidal evaluation; assay type: in vivo, Zea mays; conditions: postemergence
In short: as §1

ABUTH (Velvetleaf) = test: Preemergence herbicidal evaluation; assay type: in vivo, Abutilon theophrasti; conditions: rated 4-5 weeks after treatment
In short: (§2)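 Preemergence soil application of compound, sprayed in aqueous acetone at rates equivalent to about 0.0156 to 0.500 kg per hectare onto freshly sown cups. Plant response was judged by eye on a 0-9 scale four to five weeks later.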

AMBEL (Ragweed, Common) [4] = test: Preemergence herbicidal evaluation; assay type: in vivo, Ambrosia artemisifolia; conditions: rated 4-5 weeks after treatment
In short: as §2

CASOB (Sicklepod) = test: Preemergence herbicidal evaluation; assay type: in vivo, Cassia obtusifolia; conditions: rated 4-5 weeks after treatment
In short: as §2

GALAP (Galium) = test: Preemergence herbicidal evaluation; assay type: in vivo, Galium aparine; conditions: rated 4-5 weeks after treatment
In short: as §2

ECHCG (Barnyardgrass) = test: Preemergence herbicidal evaluation; assay type: in vivo, Echinochloa crus-galli; conditions: rated 4-5 weeks after treatment
In short: as §2

SETVI (Foxtail, Green) = test: Preemergence herbicidal evaluation; assay type: in vivo, Setaria viridis; conditions: rated 4-5 weeks after treatment
In short: as §2

[5] = test system: GLXMAW (Soybean, Williams); test: Preemergence herbicidal evaluation; assay type: in vivo, Glycine max, (L.) Merr. cv Williams; conditions: rated 4-5 weeks after treatment
In short: as §2

CYPSE (Flatsedge) = test: Preemergence weed control under flooded paddy conditions; assay type: in vivo, Cyperus serotinus; conditions: rated 3-4 weeks after treatment
In short: (§3)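 Greenhouse paddy assay. Acetone/water (50/50 v/v) solutions dosed into flood water, equivalent to about 0.0313 to 0.500 kg/ha active ingredient, over seeds planted 0.5 cm deep in silt loam. Score: 0-9 visual, based on stand, vigor, malformation, size and chlorosis, 3 to 4 weeks after treatment.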

[6] = test system: SAGPY (Arrowhead (Pygmaea)); test: as above; assay type: in vivo, Sagittaria pygmaea; conditions: rated 3-4 weeks after treatment
In short: as §3

CCCCOC(=O)CN1C(=O)CSC1=Nc1cc(-n2c(=O)cc(C(F)(F)F)n(C)c2=O)c(F)cc1Cl [Compound 111]
herbicidal rating AMBEL (AMBEL (Ragweed, Common) [1]; rate 0.0158 kg/ha): 4.0
herbicidal rating AMBEL (AMBEL (Ragweed, Common) [1]; rate 0.0315 kg/ha): 6.0
herbicidal rating AMBEL (AMBEL (Ragweed, Common) [1]; rate 0.0630 kg/ha): 9.0
herbicidal rating IPOHE ([2]; rate 0.0158 kg/ha): 4.0
herbicidal rating IPOHE ([2]; rate 0.0315 kg/ha): 9.0
herbicidal rating IPOHE ([2]; rate 0.0630 kg/ha): 9.0
herbicidal rating GLXMAW ([3]; rate 0.0158 kg/ha): 6.0
herbicidal rating GLXMAW ([3]; rate 0.0315 kg/ha): 6.0
herbicidal rating GLXMAW ([3]; rate 0.0630 kg/ha): 6.0
herbicidal rating ZEAMX (ZEAMX (Corn, Field); rate 0.0158 kg/ha): 6.5
herbicidal rating ZEAMX (ZEAMX (Corn, Field); rate 0.0315 kg/ha): 6.5
herbicidal rating ZEAMX (ZEAMX (Corn, Field); rate 0.0630 kg/ha): 7.0
Preemergence herbicidal rating ABUTH (ABUTH (Velvetleaf); rate 0.0156 kg/ha): 1.0
Preemergence herbicidal rating ABUTH (ABUTH (Velvetleaf); rate 0.0313 kg/ha): 0.0
Preemergence herbicidal rating ABUTH (ABUTH (Velvetleaf); rate 0.0625 kg/ha): 2.0
Preemergence herbicidal rating ABUTH (ABUTH (Velvetleaf); rate 0.1250 kg/ha): 9.0
Preemergence herbicidal rating ABUTH (ABUTH (Velvetleaf); rate 0.2500 kg/ha): 9.0
Preemergence herbicidal rating AMBEL (AMBEL (Ragweed, Common) [4]; rate 0.0156 kg/ha): 0.0
Preemergence herbicidal rating AMBEL (AMBEL (Ragweed, Common) [4]; rate 0.0313 kg/ha): 0.0
Preemergence herbicidal rating AMBEL (AMBEL (Ragweed, Common) [4]; rate 0.0625 kg/ha): 0.0
Preemergence herbicidal rating AMBEL (AMBEL (Ragweed, Common) [4]; rate 0.1250 kg/ha): 6.0
Preemergence herbicidal rating AMBEL (AMBEL (Ragweed, Common) [4]; rate 0.2500 kg/ha): 7.0
Preemergence herbicidal rating CASOB (CASOB (Sicklepod); rate 0.0156 kg/ha): 0.0
Preemergence herbicidal rating CASOB (CASOB (Sicklepod); rate 0.0313 kg/ha): 0.0
Preemergence herbicidal rating CASOB (CASOB (Sicklepod); rate 0.0625 kg/ha): 1.0
Preemergence herbicidal rating CASOB (CASOB (Sicklepod); rate 0.1250 kg/ha): 1.0
Preemergence herbicidal rating CASOB (CASOB (Sicklepod); rate 0.2500 kg/ha): 9.0
Preemergence herbicidal rating GALAP (GALAP (Galium); rate 0.0156 kg/ha): 0.0
Preemergence herbicidal rating GALAP (GALAP (Galium); rate 0.0313 kg/ha): 0.0
Preemergence herbicidal rating GALAP (GALAP (Galium); rate 0.0625 kg/ha): 0.0
Preemergence herbicidal rating GALAP (GALAP (Galium); rate 0.1250 kg/ha): 6.0
Preemergence herbicidal rating GALAP (GALAP (Galium); rate 0.2500 kg/ha): 7.0
Preemergence herbicidal rating ECHCG (ECHCG (Barnyardgrass); rate 0.0156 kg/ha): 0.0
Preemergence herbicidal rating ECHCG (ECHCG (Barnyardgrass); rate 0.0313 kg/ha): 0.0
Preemergence herbicidal rating ECHCG (ECHCG (Barnyardgrass); rate 0.0625 kg/ha): 0.0
Preemergence herbicidal rating ECHCG (ECHCG (Barnyardgrass); rate 0.1250 kg/ha): 0.0
Preemergence herbicidal rating ECHCG (ECHCG (Barnyardgrass); rate 0.2500 kg/ha): 4.0
Preemergence herbicidal rating SETVI (SETVI (Foxtail, Green); rate 0.0156 kg/ha): 0.0
Preemergence herbicidal rating SETVI (SETVI (Foxtail, Green); rate 0.0313 kg/ha): 0.0
Preemergence herbicidal rating SETVI (SETVI (Foxtail, Green); rate 0.0625 kg/ha): 1.0
Preemergence herbicidal rating SETVI (SETVI (Foxtail, Green); rate 0.1250 kg/ha): 7.0
Preemergence herbicidal rating SETVI (SETVI (Foxtail, Green); rate 0.2500 kg/ha): 7.0
Preemergence herbicidal rating GLXMAW ([5]; rate 0.0156 kg/ha): 1.0
Preemergence herbicidal rating GLXMAW ([5]; rate 0.0313 kg/ha): 1.0
Preemergence herbicidal rating GLXMAW ([5]; rate 0.0625 kg/ha): 1.0
Preemergence herbicidal rating GLXMAW ([5]; rate 0.1250 kg/ha): 3.0
Preemergence herbicidal rating GLXMAW ([5]; rate 0.2500 kg/ha): 4.0
CYPSE herbicidal effect rating (CYPSE (Flatsedge); 0.0625 kg/ha): 4.0
CYPSE herbicidal effect rating (CYPSE (Flatsedge); 0.1250 kg/ha): 9.0
CYPSE herbicidal effect rating (CYPSE (Flatsedge); 0.2500 kg/ha): 9.0
SAGPY herbicidal effect rating ([6]; 0.0313 kg/ha): 3.0
SAGPY herbicidal effect rating ([6]; 0.0625 kg/ha): 4.0
SAGPY herbicidal effect rating ([6]; 0.1250 kg/ha): 5.0
SAGPY herbicidal effect rating ([6]; 0.2500 kg/ha): 6.0
